The structures appear in SMILES notation.

For this test, the target named is beta-catenin-B-cell lymphoma 9 protein complex (Homo sapiens, UniProt P35222+O00512). Put plainly: Alphascreen Assay: Alphascreen Assays to Determine the Apparent Kd Values for Wild-Type and Mutant β-Catenin/BCL9 InteractionsThe experimental detail using AlphaScreen to determine the apparent Kd values for β-catenin/BCL9 and β-catenine/E-cadherin PPIs has been described previously (Zhang et al. (2015) Anal. Biochem. 469: 43-53). The concentrations of mutant β-catenin proteins used in the assays were the same as that of wild-type β-catenin. It is filed as protein-complex assay. In general terms: In Alpha technology, singlet oxygen from a donor bead excites a nearby acceptor bead.
Sequence of beta-catenin-B-cell lymphoma 9 protein complex (O00512 whole entry, stated change not applied): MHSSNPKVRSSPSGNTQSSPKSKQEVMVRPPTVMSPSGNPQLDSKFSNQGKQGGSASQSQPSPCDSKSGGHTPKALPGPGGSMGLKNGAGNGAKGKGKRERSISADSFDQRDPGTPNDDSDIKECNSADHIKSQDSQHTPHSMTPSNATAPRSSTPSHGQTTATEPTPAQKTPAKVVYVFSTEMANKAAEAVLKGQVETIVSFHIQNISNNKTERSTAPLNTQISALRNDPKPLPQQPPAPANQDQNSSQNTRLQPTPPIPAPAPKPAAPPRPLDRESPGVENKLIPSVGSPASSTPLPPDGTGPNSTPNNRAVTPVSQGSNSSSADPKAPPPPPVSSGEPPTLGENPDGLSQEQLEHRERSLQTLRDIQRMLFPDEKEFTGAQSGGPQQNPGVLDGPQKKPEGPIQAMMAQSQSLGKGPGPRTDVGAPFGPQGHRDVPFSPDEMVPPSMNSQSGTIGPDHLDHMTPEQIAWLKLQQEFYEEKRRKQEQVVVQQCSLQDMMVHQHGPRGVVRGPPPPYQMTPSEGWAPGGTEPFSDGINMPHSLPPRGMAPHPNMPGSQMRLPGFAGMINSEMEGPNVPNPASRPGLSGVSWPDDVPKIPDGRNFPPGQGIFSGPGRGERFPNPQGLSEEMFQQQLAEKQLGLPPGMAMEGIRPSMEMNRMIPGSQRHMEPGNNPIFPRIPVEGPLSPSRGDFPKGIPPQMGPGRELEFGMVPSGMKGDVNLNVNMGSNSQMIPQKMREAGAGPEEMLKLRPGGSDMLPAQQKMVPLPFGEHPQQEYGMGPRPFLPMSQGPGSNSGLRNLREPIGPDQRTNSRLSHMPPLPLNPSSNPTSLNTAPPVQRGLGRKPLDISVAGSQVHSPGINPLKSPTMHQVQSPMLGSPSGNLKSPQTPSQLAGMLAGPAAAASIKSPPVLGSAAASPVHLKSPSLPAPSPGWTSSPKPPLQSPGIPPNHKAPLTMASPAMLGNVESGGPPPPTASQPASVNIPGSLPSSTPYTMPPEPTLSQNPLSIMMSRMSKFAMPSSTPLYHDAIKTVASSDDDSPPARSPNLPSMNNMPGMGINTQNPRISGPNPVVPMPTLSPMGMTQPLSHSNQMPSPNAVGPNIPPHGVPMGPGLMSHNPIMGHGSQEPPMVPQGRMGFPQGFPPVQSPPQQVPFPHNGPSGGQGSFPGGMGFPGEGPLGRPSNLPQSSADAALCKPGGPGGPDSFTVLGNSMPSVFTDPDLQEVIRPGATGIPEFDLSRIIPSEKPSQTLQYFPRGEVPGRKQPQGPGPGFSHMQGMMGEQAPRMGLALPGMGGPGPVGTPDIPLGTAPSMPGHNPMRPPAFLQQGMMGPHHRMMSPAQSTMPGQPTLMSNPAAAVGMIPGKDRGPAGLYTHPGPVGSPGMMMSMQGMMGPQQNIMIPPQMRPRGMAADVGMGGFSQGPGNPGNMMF
Sequence of beta-catenin-B-cell lymphoma 9 protein complex (P35222 2-781 limits assumed, stated change not applied): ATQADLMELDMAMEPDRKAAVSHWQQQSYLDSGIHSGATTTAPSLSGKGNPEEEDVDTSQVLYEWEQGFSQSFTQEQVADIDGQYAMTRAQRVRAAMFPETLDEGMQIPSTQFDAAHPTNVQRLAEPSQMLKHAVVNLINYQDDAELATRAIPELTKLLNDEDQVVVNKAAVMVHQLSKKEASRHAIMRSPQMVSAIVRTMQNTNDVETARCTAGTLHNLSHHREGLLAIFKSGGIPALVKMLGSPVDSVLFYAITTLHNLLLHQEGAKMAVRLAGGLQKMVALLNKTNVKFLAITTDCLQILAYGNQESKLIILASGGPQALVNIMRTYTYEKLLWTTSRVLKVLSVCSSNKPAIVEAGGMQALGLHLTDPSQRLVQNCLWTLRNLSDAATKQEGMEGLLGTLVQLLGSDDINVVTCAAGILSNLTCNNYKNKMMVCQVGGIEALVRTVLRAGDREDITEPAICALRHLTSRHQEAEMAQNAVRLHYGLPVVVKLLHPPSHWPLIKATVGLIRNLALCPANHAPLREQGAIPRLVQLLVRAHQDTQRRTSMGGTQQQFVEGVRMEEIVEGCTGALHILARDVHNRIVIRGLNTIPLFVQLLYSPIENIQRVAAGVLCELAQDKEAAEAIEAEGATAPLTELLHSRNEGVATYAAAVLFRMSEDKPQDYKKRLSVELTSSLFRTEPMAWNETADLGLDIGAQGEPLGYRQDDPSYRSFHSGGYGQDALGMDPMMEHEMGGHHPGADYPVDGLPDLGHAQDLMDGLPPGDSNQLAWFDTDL

Take `CC(C)c1cc2c(c(O)c1O)[C@@]1(C(=O)O)CCCC(C)(C)[C@@H]1CC2`: the Ki was 5.3 µM.
